Assay results taken from ChEMBL document CHEMBL1133444, “N-cycloalkyl derivatives of adenosine and 1-deazaadenosine as agonists and partial agonists of the A(1) adenosine receptor” (J Med Chem, 2000).

Experiments:
[1] = target: T1, Adenosine receptor A1 (Rattus norvegicus, UniProt P25099); assay: Binding affinity for adenosine A1 receptor was assayed by displacement of [3H]DPCPX from rat cortical membranes.; assay type: cell membranes, Membrane
T1 sequence (P25099 whole entry): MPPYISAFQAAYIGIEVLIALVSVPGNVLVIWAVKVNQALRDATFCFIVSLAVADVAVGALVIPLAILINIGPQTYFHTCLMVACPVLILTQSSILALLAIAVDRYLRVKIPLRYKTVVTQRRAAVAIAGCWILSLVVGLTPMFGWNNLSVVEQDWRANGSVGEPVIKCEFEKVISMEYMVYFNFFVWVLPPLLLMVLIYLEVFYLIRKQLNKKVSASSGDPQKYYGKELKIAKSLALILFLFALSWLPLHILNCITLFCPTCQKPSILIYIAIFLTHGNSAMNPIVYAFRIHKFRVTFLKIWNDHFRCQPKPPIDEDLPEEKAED

[2] = target: T1, Adenosine receptor A1; assay: Stimulation of [35S]GTP-gamma-S, binding to rat brain membranes by adenosine A1 receptor activation; assay type: functional, cell membranes, Membrane
[3] = target: Adenosine receptor A2a (Rattus norvegicus, UniProt P30543); assay: Binding affinity for adenosine A2A receptor was determined by displacement of [3H]CGS 21680 from rat striatal membranes.
[4] = target: T1, Adenosine receptor A1
[5] = target: T1, Adenosine receptor A1; assay: Binding affinity for adenosine A1 receptor, was assessed from the ability to displace [3H]-DPCPX (without GTP) from rat cortical membranes.
[6] = % of the receptors in the high affinity state
[7] = target: T2, Adenosine receptor A1 (Rattus norvegicus) (UniProt P25099)
T2 sequence (whole entry): T1 sequence (P25099 whole entry)
Description: Binding affinity for adenosine A1 receptor, was assessed from the ability to displace [3H]DPCPX (without GTP) from rat cortical membranes, activity expressed as KH (affinity for the high-affinity state)

[8] = target: T2, Adenosine receptor A1 (Rattus norvegicus); remark: listed apart in the source
Description: Binding affinity for adenosine A1 receptor, was assessed from the ability to displace [3H]DPCPX (without GTP) from rat cortical membranes, activity expressed as KL (affinity for the low-affinity state)

[9] = target: T2, Adenosine receptor A1 (Rattus norvegicus); remark: listed apart in the source
[10] = target: T2, Adenosine receptor A1 (Rattus norvegicus); assay: Percent relative intrinsic activity with reference to CCPA
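Throughout, for KH: displacement of [3H]DPCPX binding from rat cortical membranes in the absence of GTP, KH giving affinity for the high-affinity receptor state.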
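Throughout, for KL: displacement of [3H]DPCPX from rat cortical membranes, assayed without GTP, with KL giving affinity for the low-affinity state of the receptor.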

Sequence of Adenosine receptor A2a (P30543 whole entry): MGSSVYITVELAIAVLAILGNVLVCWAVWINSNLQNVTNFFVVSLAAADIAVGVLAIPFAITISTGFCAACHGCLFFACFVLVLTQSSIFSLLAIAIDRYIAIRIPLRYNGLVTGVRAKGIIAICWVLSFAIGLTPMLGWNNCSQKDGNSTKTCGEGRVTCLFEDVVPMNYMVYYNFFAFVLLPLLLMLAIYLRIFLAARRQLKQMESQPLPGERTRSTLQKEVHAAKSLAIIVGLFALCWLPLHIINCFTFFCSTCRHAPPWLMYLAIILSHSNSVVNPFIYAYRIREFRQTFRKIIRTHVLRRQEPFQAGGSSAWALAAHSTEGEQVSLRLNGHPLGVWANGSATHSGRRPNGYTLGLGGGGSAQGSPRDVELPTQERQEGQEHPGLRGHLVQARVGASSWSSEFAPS

Compound `OC[C@H]1O[C@@H](n2cnc3c(NC4CC4)cc(Cl)nc32)[C@H](O)[C@@H]1O` has a Ki [1] of 151 nM, an EC50 [2] of 704 nM and a Ki [3] of 9640 nM.

For `OC[C@H]1O[C@@H](n2cnc3c(NC4CCCCC4)nc(Cl)nc32)[C@H](O)[C@@H]1O`, the Ki [1] was 31.7 nM and the Ki [3] was 590 nM.

With `OC[C@H]1O[C@@H](n2cnc3c(NC4CCCC4)ncnc32)[C@H](O)[C@@H]1O` [N6-CYCLOPENTYLADENOSINE] the Ki [3] was 3370 nM.

With `OC[C@H]1O[C@@H](n2cnc3c(NC4CC4)ccnc32)[C@H](O)[C@@H]1O` the Ki [1] was 326 nM, the EC50 [2] was 1530 nM and the Ki [3] was 16400 nM.

With `OC[C@H]1O[C@@H](n2cnc3c(NC4CCCCCCC4)ncnc32)C[C@@H]1O` the Ki [4] was 9310 nM, the Ki [5] was 586 nM and the RHA [6] was 45.9%. The KH [7] was 84.9 nM, the KL [8] was 4.19 µM and the RIA [9] was 0.

For `OC[C@H]1OC(n2cnc3c(NC4CCCCCCC4)ccnc32)[C@H](O)[C@@H]1O` (some centres not stated), the Ki [1] was 539 nM and the Ki [3] was 13700 nM.

For `OC[C@H]1O[C@@H](n2cnc3c(NC4CCCCCC4)cc(Cl)nc32)[C@@H](O)C1O` (some centres not stated), the Ki [1] was 247 nM, the EC50 [2] was 6580 nM and the Ki [3] was 4870 nM.

`OC[C@H]1O[C@@H](n2cnc3c(NC4CCCCCCC4)ncnc32)[C@H](O)[C@@H]1O` gave a Ki [1] of 53.5 nM and a Ki [3] of 4180 nM.

With `OC[C@H]1O[C@@H](n2cnc3c(NC4CCCCC4)cc(Cl)nc32)[C@H](O)[C@@H]1O` the Ki [1] was 268 nM and the Ki [3] was 5210 nM.

`OC[C@H]1O[C@@H](n2cnc3c(NC4CCCC4)cc(Cl)nc32)[C@H](O)[C@@H]1O` showed a Ki [1] of 49 nM, an EC50 [2] of 408 nM and a Ki [3] of 2840 nM.

In the case of `OC[C@H]1O[C@@H](n2cnc3c(NC4CCCCC4)nc(Cl)nc32)C[C@@H]1O`, the Ki [4] is reported as 2560 nM, the Ki [5] is reported as 497 nM and the KH [7] is reported as 61.7 nM. The KL [8] was 1.59 µM and the RIA [9] was 0.

`OC[C@H]1OC(n2cnc3c(NC4CCCCCCC4)cc(Cl)nc32)[C@H](O)[C@@H]1O` (some centres not stated) showed a Ki [1] of 595 nM and a Ki [3] of 20000 nM.

`OC[C@H]1O[C@@H](n2cnc3c(NC4CCCCC4)ccnc32)[C@H](O)[C@@H]1O` gave a Ki [1] of 169 nM and a Ki [3] of 5120 nM.

`OC[C@H]1O[C@@H](n2cnc3c(NC4CC4)ncnc32)[C@H](O)[C@@H]1O` gave a Ki [1] of 26.7 nM, an EC50 [2] of 709 nM and a Ki [3] of 510 nM.

`OC[C@H]1O[C@@H](n2cnc3c(NC4CCCCCC4)nc(Cl)nc32)C[C@@H]1O` showed a Ki [4] of 1090 nM, a Ki [5] of 369 nM and a KH [7] of 30.7 nM. The KL [8] was 0.752 µM and the RIA [9] was 0.

With `OC[C@H]1O[C@@H](n2cnc3c(NC4CCC4)nc(Cl)nc32)[C@H](O)[C@@H]1O` the Ki [1] was 5.3 nM and the Ki [3] was 460 nM.

For `OC[C@H]1O[C@@H](n2cnc3c(NC4CCC4)ncnc32)C[C@@H]1O`, the Ki [4] was 23600 nM, the Ki [5] was 524 nM and the EC50 [2] was 5110 nM. It also gave a KH [7] of 121 nM, a KL [8] of 8.3 µM and an RIA [9] of 33.8.

`OC[C@H]1O[C@@H](n2cnc3c(NC4CCCC4)nc(Cl)nc32)C[C@@H]1O` showed a Ki [4] of 1320 nM, a Ki [5] of 154 nM and an EC50 [2] of 1560 nM. For the same compound, the KH [7] was 18.5 nM, the KL [8] was 0.8 µM and the RIA [9] was 8.3.

Compound `OC[C@H]1O[C@@H](n2cnc3c(NC4CCC4)ccnc32)[C@H](O)[C@@H]1O` has a Ki [1] of 109 nM and a Ki [3] of 6550 nM.

In the case of `OC[C@H]1O[C@@H](n2cnc3c(NC4CCC4)cc(Cl)nc32)[C@H](O)[C@@H]1O`, the Ki [1] is reported as 41 nM and the Ki [3] is reported as 3110 nM.

With `OC[C@H]1OC(n2cnc3c(NC4CCCCCC4)ccnc32)[C@H](O)[C@@H]1O` (some centres not stated) the Ki [1] was 364 nM, the EC50 [2] was 6360 nM and the Ki [3] was 9200 nM.

With `OC[C@H]1OC(n2cnc3c(NC4CCCCCC4)nc(Cl)nc32)[C@H](O)[C@@H]1O` (some centres not stated) the Ki [1] was 37.9 nM, the EC50 [2] was 431 nM and the Ki [3] was 1100 nM.

Work on `OC[C@H]1OC(n2cnc3c(NC4CCCCCCC4)nc(Cl)nc32)[C@H](O)[C@@H]1O` (some centres not stated) yielded a Ki [1] of 122 nM and a Ki [3] of 4230 nM.

In the case of `OC[C@H]1O[C@@H](n2cnc3c(NC4CC4)nc(Cl)nc32)C[C@@H]1O`, the RIA [10] is reported as 20.8%, the Ki [4] is reported as 14300 nM and the Ki [5] is reported as 724 nM. For the same compound, the EC50 [2] was 6180 nM, the KH [7] was 115 nM and the KL [8] was 6.03 µM.

Compound `OC[C@H]1O[C@@H](n2cnc3c(NC4CCCCCCC4)nc(Cl)nc32)C[C@@H]1O` has a Ki [4] of 1410 nM, a Ki [5] of 659 nM and an RHA [6] of 14.5%. For the same compound, the KH [7] was 23.6 nM, the KL [8] was 1.02 µM and the RIA [9] was 0.

In the case of `OC[C@H]1O[C@@H](n2cnc3c(NC4CCCC4)ccnc32)[C@H](O)[C@@H]1O`, the Ki [1] is reported as 100 nM, the EC50 [2] is reported as 475 nM and the Ki [3] is reported as 10100 nM.

For `OC[C@H]1O[C@@H](n2cnc3c(NC4CCCCC4)ncnc32)C[C@@H]1O`, the Ki [4] was 16700 nM, the Ki [5] was 412 nM and the EC50 [2] was 9640 nM. For the same compound, the KH [7] was 92.5 nM, the KL [8] was 7.33 µM and the RIA [9] was 40.1.

Compound `OC[C@H]1O[C@@H](n2cnc3c(NC4CC4)nc(Cl)nc32)[C@H](O)[C@@H]1O` has an EC50 [2] of 57.3 nM and a Ki [3] of 2060 nM.

In the case of `OC[C@H]1O[C@@H](n2cnc3c(NC4CCC4)nc(Cl)nc32)C[C@@H]1O`, the Ki [4] is reported as 3600 nM, the Ki [5] is reported as 245 nM and the EC50 [2] is reported as 3710 nM. The KH [7] was 33.3 nM, the KL [8] was 1.92 µM and the RIA [9] was 19.5.

Compound `OC[C@H]1O[C@@H](n2cnc3c(NC4CCCC4)ncnc32)C[C@@H]1O` has a Ki [4] of 10200 nM, a Ki [5] of 212 nM and an EC50 [2] of 5760 nM. The KH [7] was 39.3 nM, the KL [8] was 3.52 µM and the RIA [9] was 42.1.

With `OC[C@H]1O[C@@H](n2cnc3c(NC4CC4)ncnc32)C[C@@H]1O` the RIA [9] was 0.

With `OC[C@H]1O[C@@H](n2cnc3c(NC4CCCCCC4)ncnc32)[C@H](O)[C@@H]1O` the Ki [1] was 19.6 nM, the EC50 [2] was 86.4 nM and the Ki [3] was 3150 nM.

With `OC[C@H]1O[C@@H](n2cnc3c(NC4CCCCCC4)ncnc32)C[C@@H]1O` the Ki [4] was 20400 nM, the Ki [5] was 769 nM and the EC50 [2] was 13700 nM. The KH [7] was 124 nM, the KL [8] was 7.41 µM and the RIA [9] was 24.9.

With `OC[C@H]1O[C@@H](n2cnc3c(NC4CCC4)ncnc32)[C@H](O)[C@@H]1O` the Ki [1] was 3.92 nM and the Ki [3] was 420 nM.
